Active and inactive are the calls of the source. No cut-off for these calls is given here.
Tests used:
Acetylcholinesterase = Acetylcholinesterase (Electrophorus electricus, UniProt O42275); type: ADME
Description: Inhibition of electric eel AChE using acetylthiocholine iodide as substrate preincubated for 30 mins followed by substrate addition and measured after 30 mins by Ellman's method

[1] = target: Cholinesterase (Equus caballus) (UniProt P81908); assay: Mixed-type inhibition of equine serum BuChE up to 8 uM using varying levels of S-butyrylthiocholine iodide as substrate preincubated for 30 mins followed by substrate addition and measured after 30 mins by Lineweaver-Burk plot analysis
Chain of Cholinesterase (Equus caballus) (P81908 whole entry): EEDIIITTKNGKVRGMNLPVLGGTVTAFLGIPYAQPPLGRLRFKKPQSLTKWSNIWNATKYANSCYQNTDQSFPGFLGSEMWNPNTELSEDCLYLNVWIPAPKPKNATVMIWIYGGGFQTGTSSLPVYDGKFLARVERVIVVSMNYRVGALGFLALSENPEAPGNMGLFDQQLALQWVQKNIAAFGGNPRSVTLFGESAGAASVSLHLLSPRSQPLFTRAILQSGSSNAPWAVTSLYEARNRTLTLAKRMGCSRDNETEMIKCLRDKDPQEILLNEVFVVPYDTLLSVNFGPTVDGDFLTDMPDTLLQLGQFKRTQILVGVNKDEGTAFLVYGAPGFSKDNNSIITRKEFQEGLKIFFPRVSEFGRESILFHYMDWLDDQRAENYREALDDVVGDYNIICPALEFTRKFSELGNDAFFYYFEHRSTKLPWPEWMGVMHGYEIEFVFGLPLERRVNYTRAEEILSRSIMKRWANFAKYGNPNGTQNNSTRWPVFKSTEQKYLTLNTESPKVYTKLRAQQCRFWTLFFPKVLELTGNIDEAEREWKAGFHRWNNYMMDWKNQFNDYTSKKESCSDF

SH-SY5Y [2] = assay: Neuro-antioxidant activity against H2O2-induced oxidative stress in human SH-SY5Y cells assessed as intracellular ROS generation at 1 uM preincubated for 6 hrs followed by H2O2 challenge for 24 hrs by DCFH-DA staining-based fluorescence assay (reference value: 119.61 +/- 5.269%); type: functional
SH-SY5Y [3] = assay: Neuro-antioxidant activity against H2O2-induced oxidative stress in human SH-SY5Y cells assessed as intracellular ROS generation at 5 uM preincubated for 6 hrs followed by H2O2 challenge for 24 hrs by DCFH-DA staining-based fluorescence assay (reference value: 119.61 +/- 5.269%); type: functional
SH-SY5Y [4] = assay: Neuro-antioxidant activity against H2O2-induced oxidative stress in human SH-SY5Y cells assessed as intracellular ROS generation at 10 uM preincubated for 6 hrs followed by H2O2 challenge for 24 hrs by DCFH-DA staining-based fluorescence assay (reference value: 119.61 +/- 5.269%); type: functional
SH-SY5Y [5] = assay: Neuro-antioxidant activity against H2O2-induced oxidative stress in human SH-SY5Y cells assessed as intracellular ROS generation at 20 uM preincubated for 6 hrs followed by H2O2 challenge for 24 hrs by DCFH-DA staining-based fluorescence assay (reference value: 119.61 +/- 5.269%); type: functional
SH-SY5Y [6] = assay: Neuro-antioxidant activity in human SH-SY5Y cells assessed as H2O2-induced increase in intracellular ROS generation at 50 uM preincubated for 6 hrs followed by H2O2 challenge for 24 hrs by DCFH-DA staining-based fluorescence assay relative to control (reference value: 119.61 +/- 5.269%); type: functional
[7] = target: Amyloid-beta precursor protein (Homo sapiens) (UniProt P05067); assay: Inhibition of self-mediated amyloid beta (1 to 42) (unknown origin) aggregation assessed as short and thin fibril formation at 100 uM incubated for 48 hrs by transmission electron microscopic method
Chain of Amyloid-beta precursor protein (Homo sapiens) (P05067 whole entry): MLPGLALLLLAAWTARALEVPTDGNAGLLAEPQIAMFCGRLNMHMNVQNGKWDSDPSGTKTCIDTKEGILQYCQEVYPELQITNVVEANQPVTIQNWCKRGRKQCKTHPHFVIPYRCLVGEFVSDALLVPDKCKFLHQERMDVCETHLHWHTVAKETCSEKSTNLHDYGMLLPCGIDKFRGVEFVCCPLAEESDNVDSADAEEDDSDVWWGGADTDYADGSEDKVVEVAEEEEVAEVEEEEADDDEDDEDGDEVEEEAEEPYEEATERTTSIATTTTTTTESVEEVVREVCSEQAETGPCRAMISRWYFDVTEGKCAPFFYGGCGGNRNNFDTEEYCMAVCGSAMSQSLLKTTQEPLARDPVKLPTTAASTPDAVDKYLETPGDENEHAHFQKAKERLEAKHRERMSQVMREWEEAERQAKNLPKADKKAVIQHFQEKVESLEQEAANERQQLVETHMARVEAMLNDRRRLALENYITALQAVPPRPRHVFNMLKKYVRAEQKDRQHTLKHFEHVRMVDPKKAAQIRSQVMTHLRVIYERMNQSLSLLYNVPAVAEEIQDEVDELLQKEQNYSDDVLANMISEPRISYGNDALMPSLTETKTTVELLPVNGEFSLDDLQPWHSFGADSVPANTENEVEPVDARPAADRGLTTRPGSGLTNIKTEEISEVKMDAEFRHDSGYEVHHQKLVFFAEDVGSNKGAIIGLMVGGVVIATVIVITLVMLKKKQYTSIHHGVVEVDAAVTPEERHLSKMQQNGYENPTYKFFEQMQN

[8] = Metal chelating activity assessed as compound-Cu2+ complex formation at 20 uM in presence of CuCl2 after 1 hr by UV-visible spectrophotometric analysis
[9] = Metal chelating activity assessed as compound-Zn2+ complex formation at 20 uM in presence of ZnCl2 after 1 hr by UV-visible spectrophotometric analysis
[10] = Metal chelating activity assessed as compound-Fe2+ complex formation at 20 uM in presence of FeSO4 after 1 hr by UV-visible spectrophotometric analysis
[11] = Metal chelating activity assessed as compound-Al3+ complex formation at 20 uM in presence of AlCl3 after 1 hr by UV-visible spectrophotometric analysis
[12] = Metal chelating activity assessed as compound-Mg2+ complex formation at 20 uM in presence of MgCl2 after 1 hr by UV-visible spectrophotometric analysis
[13] = Metal chelating activity assessed as compound-Ca2+ complex formation at 20 uM in presence of CaCl2 after 1 hr by UV-visible spectrophotometric analysis
[14] = n-Octanol-phosphate buffer partition co-efficient, log P of compound at pH 7.4 incubated for 48 hrs by UV spectrophotometry-based shake-flask method; type: physicochemical
PC-12 [15] = assay: cells; type: functional; settings: Rattus norvegicus
PC-12 [16] = assay: cells; type: functional; settings: Rattus norvegicus; remark: listed apart in the source
PC-12 [17] = assay: cells; type: functional; settings: Rattus norvegicus; remark: listed apart in the source
PC-12 [18] = assay: cells; type: functional; settings: Rattus norvegicus; remark: listed apart in the source
PC-12 [19] = assay: cells; type: functional; settings: Rattus norvegicus; remark: listed apart in the source
SH-SY5Y [20] = assay: Neuroprotective activity against amyloid beta (1 to 42 residues) induced cytotoxicity in human SH-SY5Y cells assessed as cell viability at 10 uM pretreated for 3 hrs followed by amyloid beta(1-42) challenge measured after 24 hrs by MTT assay (reference value: 37.53 +/- 1.4%); type: functional; settings: read-out: Activity
SH-SY5Y [21] = assay: Neuroprotective activity against amyloid beta (1 to 42 residues) induced cytotoxicity in human SH-SY5Y cells assessed as cell viability at 30 uM pretreated for 3 hrs followed by amyloid beta(1-42) challenge measured after 24 hrs by MTT assay (reference value: 37.53 +/- 1.4 %); type: functional; settings: read-out: Activity
SH-SY5Y [22] = assay: Neuroprotective activity against amyloid beta (1 to 42 residues) induced cytotoxicity in human SH-SY5Y cells assessed as cell viability at 50 uM pretreated for 3 hrs followed by amyloid beta(1-42) challenge measured after 24 hrs by MTT assay (reference value: 37.53 +/- 1.4 %); type: functional; settings: read-out: Activity
SH-SY5Y [23] = assay: Neuroprotective activity against H2O2-induced cytotoxicity in human SH-SY5Y cells assessed as cell viability at 10 uM pretreated for 3 hrs followed by H2O2 challenge measured after 24 hrs by MTT assay (reference value: 42.69 +/- 0.8%); type: functional; settings: read-out: Activity
SH-SY5Y [24] = assay: Neuroprotective activity against H2O2-induced cytotoxicity in human SH-SY5Y cells assessed as cell viability at 30 uM pretreated for 3 hrs followed by H2O2 challenge measured after 24 hrs by MTT assay (reference value: 42.69 +/- 0.8%); type: functional; settings: read-out: Activity
SH-SY5Y [25] = assay: Neuroprotective activity against H2O2-induced cytotoxicity in human SH-SY5Y cells assessed as cell viability at 50 uM pretreated for 3 hrs followed by H2O2 challenge measured after 24 hrs by MTT assay (reference value: 42.69 +/- 0.8%); type: functional; settings: read-out: Activity
[26] = Metal chelating activity assessed as mole fraction of compound required to show 1:1 stoichiometry for compound-Cu2+ complex at 20 uM after 1 hr by UV-Vis absorption spectrophotometric method
PC-12 [27] = assay: Neuroprotective activity against H2O2 induced cytotoxicity in rat PC12 cells assessed as increase in cell viability pretreated for 3 hrs followed by H2O2 challenge measured after 24 hrs by MTT assay; type: functional, cell-based
SH-SY5Y [28] = assay: Neuroprotective activity against amyloid beta (1 to 42 residues) induced cytotoxicity in human SH-SY5Y cells assessed as increase in cell viability pretreated for 3 hrs followed by amyloid beta (1 to 42 residues) challenge measured after 24 hrs by MTT assay; type: functional, cell-based
SH-SY5Y [29] = assay: Neuroprotective activity against H2O2-induced cytotoxicity in human SH-SY5Y cells assessed as increase in cell viability pretreated for 3 hrs followed by H2O2 challenge measured after 24 hrs by MTT assay; type: functional, cell-based
Cholinesterase = Cholinesterase (Equus caballus, UniProt P81908)
Chain of Cholinesterase (P81908 whole entry): as the sequence (P81908 whole entry) above
Description: Inhibition of equine serum BuChE using S-butyrylthiocholine iodide as substrate preincubated with enzyme for 30 mins followed by substrate addition and measured after 30 mins by Ellman's method

Chain of Acetylcholinesterase (O42275 whole entry): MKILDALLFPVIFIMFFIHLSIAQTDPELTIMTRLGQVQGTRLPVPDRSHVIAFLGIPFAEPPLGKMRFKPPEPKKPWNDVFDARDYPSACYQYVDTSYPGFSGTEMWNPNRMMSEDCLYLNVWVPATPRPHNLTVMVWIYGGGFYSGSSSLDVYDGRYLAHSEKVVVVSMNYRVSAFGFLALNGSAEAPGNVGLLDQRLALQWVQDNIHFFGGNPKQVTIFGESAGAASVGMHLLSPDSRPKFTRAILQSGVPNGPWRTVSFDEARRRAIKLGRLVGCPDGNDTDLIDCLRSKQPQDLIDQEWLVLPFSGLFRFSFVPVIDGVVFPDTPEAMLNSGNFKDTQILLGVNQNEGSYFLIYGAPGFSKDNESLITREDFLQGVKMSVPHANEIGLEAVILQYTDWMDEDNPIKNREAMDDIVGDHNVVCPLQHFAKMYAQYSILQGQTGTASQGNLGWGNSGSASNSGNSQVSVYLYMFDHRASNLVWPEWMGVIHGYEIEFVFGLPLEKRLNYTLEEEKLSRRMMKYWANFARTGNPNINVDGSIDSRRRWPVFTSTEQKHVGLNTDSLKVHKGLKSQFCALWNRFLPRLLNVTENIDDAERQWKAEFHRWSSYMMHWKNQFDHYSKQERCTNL

With `O=c1c2cc(NS(=O)(=O)c3ccccc3OC(F)(F)F)ccc2nc2n1CCc1c-2[nH]c2ccccc12` the IC50 (Acetylcholinesterase) was over 100 µM, the inhibition [1] was “Active” and the Activity (SH-SY5Y [2]) was 83.17%. It also gave an Activity (SH-SY5Y [3]) of 84.23%, an Activity (SH-SY5Y [4]) of 82.464% and an Activity (SH-SY5Y [5]) of 105.494%. The Activity (SH-SY5Y [6]) was 98.502%, the inhibition [7] was “Active” and the Activity [8] was “Active”. The Activity [9] was “inactive”, the Activity [10] was “inactive” and the Activity [11] was “inactive”. For the same compound, the Activity [12] was “inactive”, the Activity [13] was “inactive” and the logD at 48 h [14] was 3.62. For the same compound, the viability at 1 µM (PC-12 [15]) was 44.3%, the viability at 5 µM (PC-12 [16]) was 45.3% and the viability at 10 µM (PC-12 [17]) was 59.7%. It also gave a viability at 30 µM (PC-12 [18]) of 59.9%, a viability at 50 µM (PC-12 [19]) of 63.8% and a viability at 10 µM (SH-SY5Y [20]) of 47.9%. For the same compound, the viability at 30 µM (SH-SY5Y [21]) was 57.6%, the viability at 50 µM (SH-SY5Y [22]) was 64.2% and the viability at 10 µM (SH-SY5Y [23]) was 53.9%. The viability at 30 µM (SH-SY5Y [24]) was 61.7%, the viability at 50 µM (SH-SY5Y [25]) was 61.9% and the Activity [26] was 1.1 molar ratio. The Activity (PC-12 [27]) was “Dose-dependent effect”, the Activity (SH-SY5Y [28]) was “Dose-dependent effect” and the Activity (SH-SY5Y [29]) was “Dose-dependent effect”. The IC50 (Cholinesterase) was 3.6 µM.

Source: ChEMBL document CHEMBL4350991, “Design, synthesis, and biological evaluation of rutacecarpine derivatives as multitarget-directed ligands for the treatment of Alzheimer's disease” (Eur J Med Chem, 2019)
